Assay results reported in ChEMBL document CHEMBL1141730, “Destruxin-A4 chlorohydrin, a novel destruxin from fungus OS-F68576: isolation, structure determination, and biological activity as an inducer of erythropoietin” (1998).
Starred links: 1 amine or outer side, 2 acyl side, 3 side chain; linkers in the order of their positions; H or OH if unused. Non-standard residues stand in square brackets, D forms with d. Residues, ends and D or L forms follow the SMILES beside them. Pentanoyl(2-O,4-OH,5-Cl) = O=C(O)C(O)CC(O)CCl; dLac(3-vinyl) = C=CC[C@@H](O)C(=O)O; NMeI = CC[C@H](C)[C@H](NC)C(=O)O; X1 = C=CC[C@H](O[*:1])C(=O)[*:2]; Hica(2S) = CC(C)C[C@H](O)C(=O)O; dHica = CC(C)C[C@@H](O)C(=O)O; NMeV = CN[C@H](C(=O)O)C(C)C; NMeA = CN[C@@H](C)C(=O)O; βAla = NCCC(=O)O

Columns and labels:
[1] = system: Hep 3B2; assay: Induction of erythropoietin gene expression in human Hep3B cells over expressing human EPO assessed as maximal transcription induction ratio at 20 uM by luciferase reporter gene assay; type: functional
[2] = system: Hep 3B2; assay: Induction of erythropoietin gene expression in human Hep3B cells over expressing human EPO assessed as maximal transcription induction ratio at 1.3 uM by luciferase reporter gene assay; type: functional
[3] = system: Hep 3B2; assay: Induction of erythropoietin secretion in human Hep3B cells expressing human EPO at 10 uM by ELISA; type: functional
[4] = system: Hep 3B2; assay: Induction of erythropoietin gene expression in human Hep3B cells over expressing human EPO assessed as drug level required to produce 5 fold transcription induction ratio; type: functional
[5] = system: Hep 3B2; assay: Cytotoxicity against human Hep3B cells at =< 20 uM; type: functional, cell-based
[6] = system: Hep 3B2; assay: Induction of erythropoietin gene expression in human Hep3B cells over expressing human EPO assessed as maximal transcription induction ratio at 10 uM by luciferase reporter gene assay; type: functional
[7] = system: Hep 3B2; assay: Induction of erythropoietin gene expression in human Hep3B cells over expressing human EPO assessed as maximal transcription induction ratio at 2.1 uM by luciferase reporter gene assay; type: functional
[8] = system: Hep 3B2; assay: Induction of erythropoietin gene expression in human Hep3B cells over expressing human EPO assessed as maximal transcription induction ratio at 5 uM by luciferase reporter gene assay; type: functional

Compound	Ratio [1]	Ratio [2]	Activity [3] [mU/ml]	Activity [4] [µM]	Activity [5]	Ratio [6]	Ratio [7]	Ratio [8]
CC[C@H](C)[C@H](NC(=O)[C@@H]1CCCN1C(O)CC(O)CCl)C(=O)N(C)[C@H](C(=O)N(C)[C@@H](C)C(=O)NCCC(=O)O)[C@@H](C)CC (stereo partly specified)	1							
CC[C@H](C)[C@@H]1NC(=O)[C@@H]2CCCN2C(=O)C(CC(O)CCl)OC(=O)CCNC(=O)[C@H](C)N(C)C(=O)[C@H]([C@@H](C)CC)N(C)C1=O (stereo partly specified) (cyclo(I[NMeI][NMeA][βAla][Pentanoyl(2-O,4-OH,5-Cl)]P))		28	36	0.2	Not toxic			
CC[C@H](C)[C@@H]1NC(=O)[C@@H]2CCCN2C(=O)[C@@H](CC(C)C)OC(=O)CCNC(=O)[C@H](C)N(C)C(=O)[C@H](C(C)C)N(C)C1=O (cyclo(I[NMeV][NMeA][βAla][dHica]P))			35	2	Not toxic	19		
C=CC[C@H]1OC(=O)CCNC(=O)[C@H](C)N(C)C(=O)[C@H](C(C)C)N(C)C(=O)[C@H]([C@@H](C)CC)NC(=O)[C@@H]2CCCN2C1=O (cyclo(I[NMeV][NMeA][βAla][dLac(3-vinyl)]P))			37	0.4	Not toxic		28	
C=CC[C@@H]1OC(=O)CCNC(=O)[C@H](C)N(C)C(=O)[C@H]([C@@H](C)CC)N(C)C(=O)[C@H]([C@@H](C)CC)NC(=O)[C@@H]2CCCN2C1=O [destruxin A4] (cyclo(I[NMeI][NMeA][βAla][X1]P))			35	0.9	Not toxic			23
CC[C@H](C)[C@@H]1NC(=O)[C@@H]2CCCN2C(=O)[C@H](CC(C)C)OC(=O)CCNC(=O)[C@H](C)N(C)C(=O)[C@H]([C@@H](C)CC)N(C)C1=O [homodestruxin B] (cyclo([Hica(2S)]PI[NMeI][NMeA][βAla]))			36	0.8	Not toxic			18
